According to the supplement of paper PMC12420376:

How the values were obtained:
Experiment in all cases: cell viability relative to untreated control (ex vivo patient spheroids); higher = less cytotoxic
Conditions in all cases: 72 h
Gem015 = test system: Gem015 (ex vivo spheroids of an HRD-positive high-grade serous ovarian cancer)
Experimental: (§1)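 Ex vivo 3D spheroid cultures from dissociated tumours of HGSOC patients (DET3CT platform) were treated for 72 h with dose matrices of carboplatin combined with birinapant or vorinostat (nM). Live (TMRM) and dead (POPO-1) cells were imaged and viability was expressed as % of untreated control.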

Gem030 = test system: Gem030 (ex vivo spheroids of an HRD-positive high-grade serous ovarian cancer)
Experimental: as §1

Gem059 = test system: Gem059 (ex vivo spheroids of an HRD-negative high-grade serous ovarian cancer)
Experimental: as §1

[1] = carboplatin concentration 10 nM, partner drug concentration 0.1 nM
[2] = carboplatin concentration 10 nM, partner drug concentration 1 nM
[3] = carboplatin concentration 10 nM, partner drug concentration 10 nM
[4] = carboplatin concentration 10 nM, partner drug concentration 100 nM
[5] = carboplatin concentration 10 nM, partner drug concentration 1000 nM
[6] = carboplatin concentration 100 nM, partner drug concentration 0.1 nM
[7] = carboplatin concentration 100 nM, partner drug concentration 1 nM
[8] = carboplatin concentration 100 nM, partner drug concentration 10 nM
[9] = carboplatin concentration 100 nM, partner drug concentration 100 nM
[10] = carboplatin concentration 100 nM, partner drug concentration 1000 nM
[11] = carboplatin concentration 1000 nM, partner drug concentration 0.1 nM
[12] = carboplatin concentration 1000 nM, partner drug concentration 1 nM
[13] = carboplatin concentration 1000 nM, partner drug concentration 10 nM
[14] = carboplatin concentration 1000 nM, partner drug concentration 100 nM
[15] = carboplatin concentration 1000 nM, partner drug concentration 1000 nM
[16] = carboplatin concentration 10000 nM, partner drug concentration 0 nM
[17] = carboplatin concentration 10000 nM, partner drug concentration 0.1 nM
[18] = carboplatin concentration 10000 nM, partner drug concentration 1 nM
[19] = carboplatin concentration 10000 nM, partner drug concentration 10 nM
[20] = carboplatin concentration 10000 nM, partner drug concentration 100 nM
[21] = carboplatin concentration 10000 nM, partner drug concentration 1000 nM
[22] = carboplatin concentration 100000 nM, partner drug concentration 0 nM
[23] = carboplatin concentration 100000 nM, partner drug concentration 0.1 nM
[24] = carboplatin concentration 100000 nM, partner drug concentration 1 nM
[25] = carboplatin concentration 100000 nM, partner drug concentration 10 nM
[26] = carboplatin concentration 100000 nM, partner drug concentration 100 nM
[27] = carboplatin concentration 100000 nM, partner drug concentration 1000 nM
[28] = carboplatin concentration 10 nM, partner drug concentration 0 nM
[29] = carboplatin concentration 10 nM, partner drug concentration 10000 nM
[30] = carboplatin concentration 100 nM, partner drug concentration 0 nM
[31] = carboplatin concentration 100 nM, partner drug concentration 10000 nM
[32] = carboplatin concentration 1000 nM, partner drug concentration 0 nM
[33] = carboplatin concentration 1000 nM, partner drug concentration 10000 nM
[34] = carboplatin concentration 10000 nM, partner drug concentration 10000 nM
[35] = carboplatin concentration 100000 nM, partner drug concentration 10000 nM

Molecule `O=C(O)C1(C(=O)O)CCC1.[NH2-].[NH2-].[Pt+2]` [Carboplatin] + CC[C@H](NC(=O)[C@H](C)NC)C(=O)N1C[C@@H](O)C[C@H]1Cc1c(-c2[nH]c3cc(F)ccc3c2C[C@@H]2C[C@H](O)CN2C(=O)[C@H](CC)NC(=O)[C@H](C)NC)[nH]c2cc(F)ccc12 [Birinapant] has a cell viability (Gem015; [1]) of 100%, a cell viability (Gem015; [2]) of 93.1% and a cell viability (Gem015; [3]) of 93.5%. The cell viability (Gem015; [4]) was 82%, the cell viability (Gem015; [5]) was 55.1% and the cell viability (Gem015; [6]) was 98.5%. The cell viability (Gem015; [7]) was 90%, the cell viability (Gem015; [8]) was 101% and the cell viability (Gem015; [9]) was 77%. For the same molecule, the cell viability (Gem015; [10]) was 67.2%, the cell viability (Gem015; [11]) was 103% and the cell viability (Gem015; [12]) was 89.1%. For the same molecule, the cell viability (Gem015; [13]) was 81.6%, the cell viability (Gem015; [14]) was 85.2% and the cell viability (Gem015; [15]) was 59.3%. It also gave a cell viability (Gem015; [16]) of 91.1%, a cell viability (Gem015; [17]) of 73.5% and a cell viability (Gem015; [18]) of 97.6%. The cell viability (Gem015; [19]) was 89.5%, the cell viability (Gem015; [20]) was 84.6% and the cell viability (Gem015; [21]) was 59%. The cell viability (Gem015; [22]) was 61.2%, the cell viability (Gem015; [23]) was 58.2% and the cell viability (Gem015; [24]) was 75.8%. It also gave a cell viability (Gem015; [25]) of 73.6%, a cell viability (Gem015; [26]) of 58.7% and a cell viability (Gem015; [27]) of 39.9%. The cell viability (Gem030; [1]) was 99.1%, the cell viability (Gem030; [2]) was 105% and the cell viability (Gem030; [3]) was 99.7%. The cell viability (Gem030; [4]) was 95.4%, the cell viability (Gem030; [5]) was 59.2% and the cell viability (Gem030; [6]) was 106%. The cell viability (Gem030; [7]) was 115%, the cell viability (Gem030; [8]) was 102% and the cell viability (Gem030; [9]) was 92.5%. The cell viability (Gem030; [10]) was 60.8%, the cell viability (Gem030; [11]) was 104% and the cell viability (Gem030; [12]) was 91.7%. The cell viability (Gem030; [13]) was 101%, the cell viability (Gem030; [14]) was 88.9% and the cell viability (Gem030; [15]) was 59.8%. It also gave a cell viability (Gem030; [16]) of 105%, a cell viability (Gem030; [17]) of 102% and a cell viability (Gem030; [18]) of 99.6%. For the same molecule, the cell viability (Gem030; [19]) was 94.2%, the cell viability (Gem030; [20]) was 90.1% and the cell viability (Gem030; [21]) was 59.3%. For the same molecule, the cell viability (Gem030; [22]) was 52.2%, the cell viability (Gem030; [23]) was 60.7% and the cell viability (Gem030; [24]) was 68%. For the same molecule, the cell viability (Gem030; [25]) was 68.4%, the cell viability (Gem030; [26]) was 47.1% and the cell viability (Gem030; [27]) was 27.3%. It also gave a cell viability (Gem059; [1]) of 109%, a cell viability (Gem059; [2]) of 101% and a cell viability (Gem059; [3]) of 119%. The cell viability (Gem059; [4]) was 105%, the cell viability (Gem059; [5]) was 102% and the cell viability (Gem059; [6]) was 99.2%. For the same molecule, the cell viability (Gem059; [7]) was 99.2%, the cell viability (Gem059; [8]) was 122% and the cell viability (Gem059; [9]) was 97.4%. It also gave a cell viability (Gem059; [10]) of 106%, a cell viability (Gem059; [11]) of 89.4% and a cell viability (Gem059; [12]) of 109%. It also gave a cell viability (Gem059; [13]) of 117%, a cell viability (Gem059; [14]) of 106% and a cell viability (Gem059; [15]) of 118%. The cell viability (Gem059; [16]) was 100%, the cell viability (Gem059; [17]) was 102% and the cell viability (Gem059; [18]) was 99.8%. The cell viability (Gem059; [19]) was 97.5%, the cell viability (Gem059; [20]) was 112% and the cell viability (Gem059; [21]) was 99%. The cell viability (Gem059; [22]) was 77.4%, the cell viability (Gem059; [23]) was 82.5% and the cell viability (Gem059; [24]) was 97.3%. For the same molecule, the cell viability (Gem059; [25]) was 79.6%, the cell viability (Gem059; [26]) was 85.4% and the cell viability (Gem059; [27]) was 90.7%.

For `O=C(O)C1(C(=O)O)CCC1.[NH2-].[NH2-].[Pt+2]` [Carboplatin] + O=C(CCCCCCC(=O)Nc1ccccc1)NO [Vorinostat], the cell viability (Gem015; [28]) was 85.7%, the cell viability (Gem015; [2]) was 100% and the cell viability (Gem015; [3]) was 97.5%. For the same molecule, the cell viability (Gem015; [4]) was 97.6%, the cell viability (Gem015; [5]) was 76.3% and the cell viability (Gem015; [29]) was 35.6%. It also gave a cell viability (Gem015; [30]) of 97.2%, a cell viability (Gem015; [7]) of 94.2% and a cell viability (Gem015; [8]) of 92.8%. It also gave a cell viability (Gem015; [9]) of 93.8%, a cell viability (Gem015; [10]) of 79.3% and a cell viability (Gem015; [31]) of 37.7%. The cell viability (Gem015; [32]) was 88.1%, the cell viability (Gem015; [12]) was 96.2% and the cell viability (Gem015; [13]) was 91.6%. The cell viability (Gem015; [14]) was 91.3%, the cell viability (Gem015; [15]) was 71.6% and the cell viability (Gem015; [33]) was 36.2%. The cell viability (Gem015; [16]) was 91.1%, the cell viability (Gem015; [18]) was 84.9% and the cell viability (Gem015; [19]) was 97.1%. The cell viability (Gem015; [20]) was 95.6%, the cell viability (Gem015; [21]) was 77.2% and the cell viability (Gem015; [34]) was 36.1%. The cell viability (Gem015; [22]) was 61.2%, the cell viability (Gem015; [24]) was 71.2% and the cell viability (Gem015; [25]) was 77.1%. For the same molecule, the cell viability (Gem015; [26]) was 74.6%, the cell viability (Gem015; [27]) was 63.5% and the cell viability (Gem015; [35]) was 32.3%. It also gave a cell viability (Gem030; [28]) of 94%, a cell viability (Gem030; [2]) of 101% and a cell viability (Gem030; [3]) of 104%. The cell viability (Gem030; [4]) was 115%, the cell viability (Gem030; [5]) was 100% and the cell viability (Gem030; [29]) was 47.4%. The cell viability (Gem030; [30]) was 102%, the cell viability (Gem030; [7]) was 108% and the cell viability (Gem030; [8]) was 107%. For the same molecule, the cell viability (Gem030; [9]) was 98.2%, the cell viability (Gem030; [10]) was 101% and the cell viability (Gem030; [31]) was 40.2%. The cell viability (Gem030; [32]) was 107%, the cell viability (Gem030; [12]) was 110% and the cell viability (Gem030; [13]) was 115%. For the same molecule, the cell viability (Gem030; [14]) was 105%, the cell viability (Gem030; [15]) was 106% and the cell viability (Gem030; [33]) was 41%. For the same molecule, the cell viability (Gem030; [16]) was 105%, the cell viability (Gem030; [18]) was 116% and the cell viability (Gem030; [19]) was 102%. For the same molecule, the cell viability (Gem030; [20]) was 111%, the cell viability (Gem030; [21]) was 91.1% and the cell viability (Gem030; [34]) was 40%. The cell viability (Gem030; [22]) was 52.2%, the cell viability (Gem030; [24]) was 87.2% and the cell viability (Gem030; [25]) was 69.8%. The cell viability (Gem030; [26]) was 65.9%, the cell viability (Gem030; [27]) was 67.5% and the cell viability (Gem030; [35]) was 17.9%. For the same molecule, the cell viability (Gem059; [28]) was 109%, the cell viability (Gem059; [2]) was 99.3% and the cell viability (Gem059; [3]) was 91.5%. The cell viability (Gem059; [4]) was 110%, the cell viability (Gem059; [5]) was 103% and the cell viability (Gem059; [29]) was 86.5%. The cell viability (Gem059; [30]) was 107%, the cell viability (Gem059; [7]) was 102% and the cell viability (Gem059; [8]) was 105%. The cell viability (Gem059; [9]) was 114%, the cell viability (Gem059; [10]) was 102% and the cell viability (Gem059; [31]) was 95.8%. For the same molecule, the cell viability (Gem059; [32]) was 91.5%, the cell viability (Gem059; [12]) was 107% and the cell viability (Gem059; [13]) was 104%. It also gave a cell viability (Gem059; [14]) of 96.5%, a cell viability (Gem059; [15]) of 110% and a cell viability (Gem059; [33]) of 94.4%. It also gave a cell viability (Gem059; [16]) of 100%, a cell viability (Gem059; [18]) of 103% and a cell viability (Gem059; [19]) of 116%. For the same molecule, the cell viability (Gem059; [20]) was 101%, the cell viability (Gem059; [21]) was 114% and the cell viability (Gem059; [34]) was 95%. The cell viability (Gem059; [22]) was 77.4%, the cell viability (Gem059; [24]) was 81.7% and the cell viability (Gem059; [25]) was 81.9%. The cell viability (Gem059; [26]) was 71.5%, the cell viability (Gem059; [27]) was 85% and the cell viability (Gem059; [35]) was 71.2%.
